Reference: patent US20130053357A1, “SKIN IRRITATION SUPPRESSANT AND TRANSDERMAL PREPARATION” (HISAMITSU PHARMACEUTICAL CO., INC., priority 2010, published 2013)
Read-outs that look alike come from different tables or passages of the source.

What was measured:
[1] = tested on: human three-dimensional culture epidermal model (LabCyte EPI-MODEL); test: Suppression by cholesterol of skin irritation mediator production induced by asenapine and LADA in a human epidermal cell (Experiment 6); format: cell-based; details: 1% by mass of cholesterol; summary of Tables 5 and 6
Protocol: (§1) A human three-dimensional epidermal culture model obtained by multilayer-culturing a human normal epidermal cell (LabCyte EPI-MODEL, manufactured by Japan Tissue Engineering Co., Ltd.) was used. LabCyte is a cultured skin cultured in a transwell. For the experiment, LabCyte was used with the transwell.
(§2) The experiment was conducted as below. First, LabCyte was put into a 24-well assay plate. Then, 1 ml of assay medium (Japan Tissue Engineering Co., Ltd.) was added so that it was brought into contact with a bottom surface of the cultured skin in each well of the 24-well assay plate, and was pre-cultured in an incubator with 5% of carbon dioxide concentration at 37° C. for 1 hour.
(§3) The test solutions of each group were added to the cells, the culture solutions incubated for 48 hours were collected, and a production amount of each skin irritation mediator was measured. The skin irritation mediator was measured by using a commercially available ELISA kit (manufactured by R&D Systems, Inc.). A relative production amount of the skin irritation mediator in each test substance was calculated as below, when the production amount of the skin irritation mediator in the PMA Only Group was set to 100.
Cholesterol was used as a test substance. Asenapine and lauric acid diethanolamide (LADA) were used as the cutaneous irritants.
Tests were conducted by the following group composition. • Solvent Group: A group including only vehicle. Olive oil was used as a vehicle. • Skin Irritant Only Group: A group with addition of only cutaneous irritant dispersed in a vehicle, as a test solution. The concentration of asenapine maleate to be added was 0.6% (asenapine group), and that of LADA was 0.03% (LADA group). • Skin Irritant Plus Cholesterol Group: A group with addition of the drug and 1% by mass of cholesterol which were dispersed in a vehicle, as a test solution.
The experiment was conducted while other conditions were set in the same manner as Experiment 1.

[2] = tested on: shaved back of the rabbit; details: in vivo
Protocol: <Examination of Reduction in Skin Irritation in a Rabbit by Cholesterol, −1>
A 19-week-old JW female rabbit was subjected to an experiment.
Subsequently, the transdermal preparation of each group was applied to a shaved back of the rabbit a single time for 24 hours. Erythema and swelling on the applied site were evaluated 1, 24 and 48 hours after peel-off of the transdermal preparation in accordance with the judgment standard of Draize et al. and an average value of the skin primary irritation index (PII) was calculated.

[3] = tested on: croton oil-induced mouse ear swelling; test: Suppression of croton oil-induced mouse ear swelling reaction (Experiment 3); format: in vivo
Excerpt: <Suppression of Croton Oil-Induced Mouse Ear Swelling Reaction by the Test Substances>
Suppression of mouse ear swelling was examined through the use of croton oil (Wako Pure Chemical Industries, Ltd.) as a swelling inducer. A 7-week-old ddY female mouse (SPF) was subjected to an experiment. As test substances, cholesterol, glycyrrhizin, glycyrrhetinic acid, squalene, ergosterol, squalane and lanosterol were used. As a vehicle, acetone (Wako Pure Chemical Industries, Ltd.) was used.
Experiments were conducted by the following group composition. • Positive Control Group: A group which received only the vehicle as a primary test solution, and one hour after, received a 2% croton oil solution as a secondary test solution. • Test Substance Group: A group in which only the vehicle was administered as a primary test solution, and one hour after, a 2% croton oil solution including 1% by mass of test substance was administered as a secondary test solution.
An inhibition ratio of ear swelling was calculated as below. In this test, a […] inflammation model is used to examine immediate swelling reactions. In accordance with the group composition, 25 μL of the primary test solution was uniformly coated on back sides of both ears in an etherize mouse, and one hour after, 25 μL of the secondary test solution was uniformly coated in accordance with the group composition. Prior to coating of the secondary test solution, a thickness of auricle was measured by DIAL […] GAUGE (OZAKI MFG CO., LTD.). Furthermore, the secondary test solution was administered, and 6 hours after, the auricular thickness was measured in the same way as mentioned above, and an increased amount of the auricular thickness was set by deducting the thickness measured prior to administration of the secondary test solution. The inhibition ratio of ear swelling was calculated as below.
Inhibition ratio of ear swelling (%)=(increased amount of auricular thickness in Test Substance Group−increased amount of auricular thickness in Negative Control Group)/(increased amount of auricular thickness in Positive Control Group−increased amount of auricular thickness in Negative Control Group)×100

[4] = tested on: human three-dimensional culture epidermal model (LabCyte EPI-MODEL); test: Production of skin irritation mediators induced by PMA in human three-dimensional epidermal culture model (Experiment 1); format: cell-based; details: for activity at 1 %: Homo sapiens, test substance 1 mass % with PMA in olive oil, 48 hours
Excerpt: Changes in production amounts of skin irritation mediators by test substances were examined when cutaneous irritants were caused to act on a human three-dimensional culture epidermal model.
as §1
As test substances, there were used cholesterol (manufactured by Wako Pure Chemical Industries, Ltd.), β-sitosterol (manufactured by TAMA BIOCHEMICAL CO., LTD.), α-spinasterol (manufactured by ChromaDex, Inc.), ergosterol (manufactured by Wako Pure Chemical Industries, Ltd.), campesterol (manufactured by TAMA BIOCHEMICAL CO., LTD.), glycyrrhizin (manufactured by Wako Pure Chemical Industries, Ltd.), glycyrrhetinic acid (manufactured by Wako Pure Chemical Industries, Ltd.), ginsenoside (manufactured by Wako Pure Chemical Industries, Ltd.), squalene (manufactured by Wako Pure Chemical Industries, Ltd.), squalane (manufactured by Tokyo Chemical Industry Co., Ltd.) and lanosterol (manufactured by ChromaDex, Inc.), which are candidates of a skin irritation suppressant.
As skin irritants, Phorbol 12-Myristate 13-Acetate (PMA, manufactured by Wako Pure Chemical Industries, Ltd.) was used. In addition, as vehicle, olive oil (manufactured by Wako Pure Chemical Industries, Ltd.) was used.
Experiments were conducted by the following group composition. • PMA Only Group: A group with addition of only 0.00001 mol of PMA dispersed in a vehicle, as a test solution. • Test Substance Group: A group with addition of 0.00001 mol of PMA and the test substance which were dispersed in a vehicle, as a test solution.
as §2
Next, a cell survival rate was measured by the MTT method after causing the test solutions of each group to act. Specifically, 50 μL of the test solution of each group was added to the surface of the LabCyte after preculture, was cultured in the incubator with 5% of carbon dioxide concentration at 37° C. for 48 hours, then was transferred to the assay medium comprising 0.5 mg/ml of MTT reagent, and was cultured in the incubator with 5% of carbon oxide level at 37° C. for 3 hours. Then, LabCyte was immersed in 0.3 ml of an isopropanol solution, and the produced blue-purple formazan was extracted for 2 hours. After extraction, an absorbance at 570 nm was measured by a 96 microplate reader. The cell survival rate was calculated as below.
Cell survival rate (%)=(absorbance of Test Substance Group)/(absorbance of PMA Only Group)×100
Subsequently, a production amount of the skin irritation mediator at a test substance concentration with 80% or more of cell survival rate was measured. As skin irritation mediators, PGE2, IL-1α, IL-6, IL-8 were measured.
as §3
Relative production amount=(production amount of the mediator in Test Substance Group)/(production amount of the mediator in PMA Only Group)×100

[5] = tested on: human three-dimensional culture epidermal model (LabCyte EPI-MODEL); test: Suppression by cholesterol of skin irritation mediator production induced by drugs in a human epidermal cell (Experiment 2); format: cell-based; details: 1% by mass of cholesterol; summary of Table 2
Protocol: as §1, §2, §3
Cholesterol was used as a test substance. The drugs shown in Table 2 were used as the cutaneous irritants.
Tests were conducted by the following group composition. • Drug Only Group: A group with addition of only the drug dispersed in a vehicle, as a test solution. Concentrations of the drugs are shown in Table 2. • Drug Plus Cholesterol Group: A group with addition of the drug and 1% by mass of cholesterol which were dispersed in a vehicle, as a test solution.
The experiment was conducted while other conditions were set in the same manner as in Experiment 1.

CC(C)CCC[C@@H](C)[C@H]1CC[C@H]2[C@@H]3CC=C4C[C@@H](O)CC[C@]4(C)[C@H]3CC[C@]12C [Cholesterol, cholesterol]
Effect of cholesterol on skin irritation mediator production due to asenapine and LADA (in words) [1]: exhibited effects of suppressing the skin irritation mediator production on skin irritation due to asenapine and LADA
Skin primary irritation index (PII), average value [2]: reduces skin irritation due to the drug
Inhibition Ratio Of Ear Swelling ([3]; ddY female mouse, 1% by mass of test substance in 2% croton oil solution, 25 μL on ears, auricular thickness 6 hours after): 70.6%
Effect on croton oil-induced mouse ear swelling reaction (in words) ([3]; summary of Table 3): suppress croton oil-induced mouse ear swelling reaction
activity at 1 % ([4]; read-out: Relative Production Amount of Skin Irritation Mediator when Production Amount in PMA Only Group is Set to 100: IL-1α): 50%
activity at 1 % ([4]; read-out: Relative Production Amount of Skin Irritation Mediator when Production Amount in PMA Only Group is Set to 100: IL-6): 0%
activity at 1 % ([4]; read-out: Relative Production Amount of Skin Irritation Mediator when Production Amount in PMA Only Group is Set to 100: IL-8): 65%
activity at 1 % ([4]; read-out: Relative Production Amount of Skin Irritation Mediator when Production Amount in PMA Only Group is Set to 100: PGE2): 17%
Effect on skin irritation mediator production by PMA (in words) ([4]; summary of Table 1): exhibited effects of suppressing the skin irritation mediator production by PMA
Effect of cholesterol on drug-induced production of the skin irritation mediator (in words) [5]: exhibited effects of suppressing of production of the skin irritation mediator on a wide range of drugs
